# Legend:
# [1] = tested on: Rat PCA response; assay: Rat Passive Cutaneous Anaphylaxis (PCA) test; format: in vivo, Wistar rats
# Procedure: All of the coumarins prepared in the preceeding Examples were submitted for biological testing. The test system was the Rat Passive Cutaneous Anaphylaxis (PCA) test described below in (ii)
# i. Serum containing heat labile homocytotropic antibody was raised in rats by a method similar to that used by Mota. (I. Mota Immunology 1964, 7,681).
# Male Wistar rats of 250-300 g, were injected intraperitoneally with 0.5 of Bordatella pertussis vaccine (containing 4 × 10^10 dead organism per ml.) and subcutaneously with 0.5 ml of an emulsion of adjuvant. Rats were bled by cardiac puncture on day 18, the blood was pooled and separated and serum stored at -20° and thawed only once before use.
# ii. The P.C.A. test was similar to that described by Ovary and Bier (A. Ovary and O. E. Bier, Proc.Soc.Exp. Biol.Med. 1952, 81, 584) and Goose and Blair (J. Goose and AMJ. N. Blair, Immunology 1969, 16, 769).
# 0.1 ml of each of six twofold serial dilutions of the serum in 0.9% saline were injected intradermally into separate sites on the shaved dorsal surface of 250-350 g. Wistar rats. 72 hours later the animals were challenged by i.v. injection of 0.3 ml of 1% ovalbumin mixed with 0.1 ml of a 5% solution of pontamine sky blue dye in isotonic saline buffered with pH. 7.2 Sorenson buffer (P.B.S.). The rats were killed after 20 minutes and the diameter of the blue wheals at the antibody injection sites were measured. The starting dilution of the serum was adjusted so that there was no response, after challenge, at the site of injection of the highest dilution and a maximum response at the lowest dilution. Typically, six twofold serial dilutions of the serum from 1/4 to 1/128 were used.
# Compounds were tested for their ability to reduce the diameter of the wheals at the injection sites of dilutions of antibody which on all the controls have less than maximum response. Amounts of the compounds were administered to rats each amount to a test group of six animals at a specified time prior to intravenous challenge with ovalbumin. The diameters of the blue wheals which developed on the tests group of animals were compared with those on a control group of six animals treated in the same way as the test group, but which had not received the compound under test.
# % Inhibition of P.C.A. = 100 (1 - a/b)
# a = The mean of the sum of the diameters of the wheals produced in the test group of animals at those antibody sites where all the control group of animals gave less than maximum response.
# b = The mean of the sum of diameters of the wheals produced in the control group of animals at those antibody sites where all the animals gave less than maximum response.
# The preferred method of administration was a solution of the test compound dissolved in pH 7.2 buffer and neutralised with sodium bicarbonate.
# [2] = anti-allergic activity (general statement, no test detailed); settings: in our hands
# [3] = authors' conclusion in J.Chem.Soc. Perkin Trans I, 779, 1972; cited from earlier work
# [4] = 1 h, time 60 mins prior to challenge
# [5] = 0.5 h, time 30 mins prior to challenge
# [6] = 10 min, time 10 mins prior to challenge
Structure (SMILES),"inhibition in vivo at 25 mg/kg [1, 4]","inhibition in vivo at 100 mg/kg [1, 4]","inhibition in vivo at 25 mg/kg [1, 5]","inhibition in vivo at 100 mg/kg [1, 5]",other results
"Cc1ccc2oc(=O)c(-c3nnn[nH]3)c(C)c2c1 [Example 5, 4,6-Dimethyl-3-(tetrazol-5-yl) coumarin]",32%,19%,,,
"Cc1c(-c2nnn[nH]2)c(=O)oc2c1ccc1ccccc12 [Example 8, 7,8-Benzo-4-methyl-3-(tetrazol-5-yl) coumarin]",20%,30%,,,
"Cc1c(-c2nnn[nH]2)c(=O)oc2c(Cl)cccc12 [Example 7, 8-Chloro-4-methyl-3-(tetrazol-5-yl) coumarin]",,,19%,26%,
"Cc1ccc2c(C)c(-c3nnn[nH]3)c(=O)oc2c1 [Example 6, 4,7-Dimethyl-3-(tetrazol-5-yl) coumarin]",,,42%,45%,
"CCc1cc2oc(=O)c(-c3nnn[nH]3)c(C)c2cc1CC [Example 12, 6,7-Diethyl-4-methyl-3(tetrazol-5-yl) coumarin]",10%,42%,,,"inhibition in vivo at 25 mg/kg [1, 6]: -6%; inhibition in vivo at 100 mg/kg [1, 6]: -1%"
"Cc1c(-c2nnn[nH]2)c(=O)oc2ccc(Cl)cc12 [Example 3, 6-Chloro-4-methyl-3-(tetrazol-5-yl) coumarin]",28%,35%,,,
"Cc1c(-c2nnn[nH]2)c(=O)oc2ccc(Br)cc12 [Example 2, 6-Bromo-4-methyl-3-(tetrazol-5-yl) coumarin]",36%,44%,,,
"CCCc1c(-c2nnn[nH]2)c(=O)oc2ccccc12 [Example 10, 4-n-Propyl-3-(tetrazol-5-yl) coumarin]",,,-12%,45%,
"O=c1oc2ccccc2c(-c2ccccc2)c1-c1nnn[nH]1 [Example 11, 4-Phenyl-3-(tetrazol-5-yl) coumarin]",,,-10%,14%,
"Cc1cc2oc(=O)c(-c3nnn[nH]3)c(C)c2cc1C [Example 4, 3-(Tetrazol-5-yl)-4,6,7-trimethyl coumarin]",,,47%,70%,
"CCc1c(-c2nnn[nH]2)c(=O)oc2ccccc12 [Example 9, 4-Ethyl-3-(tetrazol-5-yl) coumarin]",,,19%,70%,
"Cc1c(-c2nnn[nH]2)c(=O)oc2ccccc12 [Example 1, 4-Methyl-3-(tetrazol-5-yl) coumarin, reference compound]",38%,48%,,,antiallergic activity [2]: substantial antiallergic activity; anti-allergic activity [3]: no anti-allergic activity
